Some results are limits rather than exact numbers.

This assay addresses T1, HIV-1 protease (Human immunodeficiency virus type 1 group M subtype B, UniProt P04585).
T1 construct: 2.6 nM of HIV-1 protease
Kind of assay: Assay for inhibitory effect on HIV protease (residual enzyme activity, HPLC of substrate cleavage). Format: biochemical. Conditions: pH 5.5; for Ki / kinact: HIV-1 protease 2.6 nM; for Ki: inhibition constant; for kinact: rate constant of covalent bond formation, read-out: kina (converted); for kinact/KI: second order rate constant, HIV-1 protease, read-out: kina /KI (converted). The procedure: The inhibitory effect on HIV protease of the compounds of the present invention was determined by the following method.
To a buffer solution comprising 50 mM sodium acetate, pH 5.5, 1 mM dithiothreitol(DTT), 1 mM ethylenediaminetetraacetate (EDTA), 0.75M ammonium sulfate, 0.2M sodium chloride and 0.1% NP40(NONIDET P-40; Sigma Chemical Co., U.S.A.), were added various concentrations of a compound selected from Compound Nos. 1 to 92 to prepare a preincubation solution. Inhibition reaction was started with the addition of 2.6 nM of HIV-1 protease to the preincubation solution. Each 10 μl of the reaction solution was taken at a given time interval and added to 80 μl of assay solution containing 100 μM of reaction substrate in the same buffer solution as above to assay for the residual enzyme activity. In this context, an oligopeptide(KM =20 μM) consisting of 11 amino acids, i.e., Ser-Ile-Ala-Glu-(p-NO2)-Phe-Leu-Val-Arg-Ala-Lys-His, was used as a reaction substrate, which oligopeptide was to be cleaved in two by the breakage of amide bond between (P--NO2)-Phe and Leu upon the attack of HIV protease. The reaction rate was determined by subjecting the substrate before the reaction and the product after the reaction to HPLC separation and then measuring the relative amount of the product, using the strong absorbance of (p--NO2)-Phe at 280 nm. The amount of reduction in enzyme activity according to the elapsed time were measured and the natural logarithmic values(ln) of the measured amounts were plotted against time to obtain a linear graph and kobs was calculated from the slope of the linear graph.
The inhibition constant was calculated according to the following equation: [formula] wherein: kobs is a rate constant indicating the rate of reduction in enzyme activity according to the elapsed time under the presence of a given concentration of inhibitor,
kina is a rate constant indicating the rate of chemical reaction forming covalent bond between an enzyme and an inhibitor in Michaelis-Menten complex,
KI is an inhibition constant indicating the dissociation rate of Michaelis-Menten complex into an enzyme and an inhibitor, and
[I] means the inhibitor concentration.
The above equation is applicable to an experiment carried out under the condition in which the concentration of inhibitor is far higher than that of enzyme(Steady State Kinetic). […] The inhibition constants KI and kina and second order rate constant kina /KI were obtained by inputting the value of [E]/([E]+[EI]+[EI']) into KINSIM/FITSIM program. FIG. 1 exemplifies a result of the experiment determining the binding ratio of enzymes and inhibitors, which result was obtained by reacting the enzyme and the inhibitor in various concentration ratios for a sufficient time period(at least for 30 minutes), and then plotting the relative activity of the remaining enzyme against [conc. of inhibitor]/[conc. of enzyme].

The Ki is the equilibrium dissociation constant of an inhibitor or competing ligand from its target. High values mean a looser hold on the target, low ones a stronger hold on the target. Regarding `CC[C@H](C)[C@H](NC(=O)C[C@@H]1O[C@@H]1[C@H](Cc1ccccc1)NC(=O)[C@H](CC(N)=O)NC(=O)COc1ccccc1)C(=O)OC` [compound 4], the Ki was found to be 60 nM, the kinact was 0.0015 s⁻¹ and the kinact/KI is 25000 M⁻¹ s⁻¹.

For the molecule `CC[C@H](C)[C@H](NC(=O)C[C@@H]1O[C@@H]1[C@H](CC1CCCCC1)NC(=O)[C@H](CC(N)=O)NC(=O)c1ccc2ccccc2n1)C(=O)OC` [compound 5], the affinity, expressed as Ki, was 92 nM; the kinact was 0.00333 s⁻¹; the kinact/KI is 36700 M⁻¹ s⁻¹.

For `COC(=O)C(NC(=O)C(CCC(N)=O)NC(=O)C[C@@H]1O[C@@H]1[C@H](Cc1ccccc1)NC(=O)[C@H](CC(N)=O)NC(=O)COc1cccc2ccccc12)C(C)C` (stereo partly drawn) [compound 16], the inhibitory constant (Ki) is 420 nM, the kinact is 0.0025 s⁻¹ and the kinact/KI was 6000 M⁻¹ s⁻¹.

`CC[C@H](C)[C@H](NC(=O)C[C@@H]1O[C@@H]1[C@H](Cc1ccccc1)NC(=O)[C@H](CC(N)=O)NC(=O)c1ccc2ccccc2n1)C(=O)N1CCOCC1` [compound 29] came in with an inhibition constant (Ki) of more than 10000 nM.

Regarding `CNC(=O)[C@@H](NC(=O)C[C@@H]1O[C@@H]1[C@H](Cc1ccccc1)NC(=O)[C@H](CC(N)=O)NC(=O)c1ccc2ccccc2n1)C(C)C` [compound 30], the affinity corresponds to a Ki of 22 nM, the kinact is 0.00333 s⁻¹ and the kinact/KI was 183000 M⁻¹ s⁻¹.

Take `CONC(=O)[C@@H](NC(=O)C[C@@H]1O[C@@H]1[C@H](Cc1ccccc1)NC(=O)[C@H](CC(N)=O)NC(=O)c1ccc2ccccc2n1)C(C)C` [compound 34]: the Ki was 15 nM, the kinact was 0.00267 s⁻¹ and the kinact/KI was 183000 M⁻¹ s⁻¹.

Regarding `CC[C@H](C)[C@H](NC(=O)C[C@@H]1O[C@@H]1[C@H](Cc1ccccc1)NC(=O)[C@@H](NC(=O)OCc1ccccn1)C(C)C)C(=O)OC` [compound 38, N-{N-L-[[N-(2-pyridylmethoxycarbonyl)-L-valinyl)-amino]-(4R,3S)-epoxy-6-phenyl-hexanoyl}-L-isoleucine methyl ester], the inhibition constant Ki is more than 10000 nM.

Turning to `CC(C)(C)OC(=O)N[C@@H](Cc1ccccc1)[C@H]1O[C@H]1CCc1ccccc1` [compound 51, 2-L-(t-butoxycarbonyl)amino-(3R,4S)-epoxy-1,6-diphenylhexane], the Ki came out at 7000 nM, the kinact was 0.000833 s⁻¹ and the kinact/KI is 118 M⁻¹ s⁻¹.

Turning to `CC[C@H](C)[C@H](NC(=O)OCc1ccccc1)C(=O)N[C@@H](Cc1ccccc1)[C@H]1O[C@H]1CCc1ccccc1` [compound 54, 2-L-(N-benzyloxycarbonyl-L-isoleucinyl)amino-(3R,4S)-epoxy-1,6-diphenylhexane], the affinity corresponds to a Ki of 1000 nM, the kinact was 0.0075 s⁻¹ and the kinact/KI was 7500 M⁻¹ s⁻¹.

On to `NC(=O)CC[C@H](NC(=O)OCc1ccccc1)C(=O)N[C@@H](Cc1ccccc1)[C@H]1O[C@H]1CCc1ccccc1` [compound 55, 2-L-(N-benzyloxycarbonyl-L-glutaminyl)amino-(3R,4S)-epoxy-1,6-diphenylhexane], for which the affinity, expressed as Ki, was 2200 nM; the kinact is 0.00367 s⁻¹; the kinact/KI is 1670 M⁻¹ s⁻¹.

As for `CC(C)C[C@H](NC(=O)[C@H](CC(N)=O)NC(=O)OCc1ccccc1)[C@H]1O[C@H]1CCc1ccccc1` [compound 56, 5-L-(N-benzyloxycarbonyl-L-asparaginyl)amino-(3S,4R)-epoxy-7-methyl-1-phenyloctane], the Ki came to 44400 nM, the kinact is 0.00483 s⁻¹ and the kinact/KI is 108 M⁻¹ s⁻¹.

Turning to `NC(=O)C[C@H](NC(=O)COc1ccccc1)C(=O)N[C@@H](Cc1ccccc1)[C@H]1O[C@H]1CCc1ccccc1` [compound 57, 2-L-(N-phenoxyacetyl-L-asparaginyl)amino-(3R,4S)-epoxy-1,6-diphenylhexane], the inhibition constant Ki is 12500 nM, the kinact is 0.0015 s⁻¹ and the kinact/KI was 120 M⁻¹ s⁻¹.

As to `NC(=O)C[C@H](NC(=O)COc1ccc(F)cc1F)C(=O)N[C@@H](Cc1ccccc1)[C@H]1O[C@H]1CCc1ccccc1` [compound 58, 2-L-[N-(2,4-difluoro)phenoxyacetyl-L-asparaginyl]amino-(3R,4S)-epoxy-1,6-diphenylhexane], the inhibition constant (Ki) came out at 3300 nM, the kinact was 0.0005 s⁻¹ and the kinact/KI is 152 M⁻¹ s⁻¹.

With `NC(=O)C[C@H](NC(=O)c1ccc2ccccc2[n+]1[O-])C(=O)N[C@@H](Cc1ccccc1)[C@H]1O[C@H]1CCc1ccccc1` [compound 64, 2-L-[N-(N-oxy)quinoline-2-yl-carbonyl-L-asparaginyl]amino-(3R,4S)-epoxy-1,6-diphenylhexane], the Ki stood at 3600 nM, the kinact was 0.0015 s⁻¹ and the kinact/KI was 417 M⁻¹ s⁻¹.

Consider `NC(=O)C[C@H](NC(=O)[C@H](Cc1ccccc1)NC(=O)CCN1CCOCC1)C(=O)N[C@@H](Cc1ccccc1)[C@H]1O[C@H]1CCc1ccccc1` [compound 66, 2-L-[N-(N-morpholinepropanecarbonyl-L-phenylalanyl)-L-asparaginyl]amino-(3R,4S)-epoxy-1,6-diphenylhexane], for which the inhibitory constant (Ki) is 550 nM, the kinact was 0.0128 s⁻¹ and the kinact/KI was 23300 M⁻¹ s⁻¹.

In the case of `C[C@H](NC(=O)OCc1ccccc1)C(=O)N[C@@H](CC(N)=O)C(=O)N[C@@H](Cc1ccccc1)[C@H]1O[C@H]1CCc1ccccc1` [compound 67, 2-L-[N-(N-benzyloxycarbonyl-L-alanyl)-L-asparaginyl]amino-(3R,4S)-epoxy-1,6-diphenylhexane], the Ki is 260 nM, the kinact was 0.00117 s⁻¹ and the kinact/KI was 4500 M⁻¹ s⁻¹.

On to `NC(=O)C[C@H](NC(=O)[C@H](Cc1ccccc1)NC(=O)OCc1ccccc1)C(=O)N[C@@H](Cc1ccccc1)[C@H]1O[C@H]1CCc1ccccc1` [compound 68, 2-L-[N-(N-benzyloxycarbonyl-L-phenylalanyl)-L-asparaginyl]amino-(3R,4S)-epoxy-1,6-diphenylhexane], for which the Ki was determined as 4000 nM, the kinact was 0.000667 s⁻¹ and the kinact/KI is 167 M⁻¹ s⁻¹.

Take `CC(C)CC[C@@H]1O[C@@H]1[C@H](Cc1ccccc1)NC(=O)[C@H](CC(N)=O)NC(=O)OCc1ccccc1` [compound 69, 2-L-(N-benzyloxycarbonyl-L-asparagyl)amino-(3R,4S)-epoxy-7-methyl-1-phenyloctane]: the Ki amounted to 550 nM, the kinact is 0.001 s⁻¹ and the kinact/KI was 1830 M⁻¹ s⁻¹.

Take `O=C(O)CC[C@H](NC(=O)OCc1ccccc1)C(=O)NC[C@@H]1O[C@@H]1[C@H](Cc1ccccc1)NC(=O)[C@H](CCC(=O)O)NC(=O)OCc1ccccc1` [compound 74, 4S-1,4-bis[N-(N'-benzyloxycarbonyl-L-glutamic acidyl)amino]-5-phenyl-(2S,3R)-(Z)-epoxypentane]: the inhibitory constant (Ki) is more than 10000 nM.

For the molecule `CC(C)[C@H](NC(=O)OCc1cccnc1)C(=O)NC[C@@H]1O[C@@H]1[C@H](Cc1ccccc1)NC(=O)[C@@H](NC(=O)OCc1cccnc1)C(C)C` [compound 78], the affinity corresponds to a Ki of 720 nM, the kinact was 0.00167 s⁻¹ and the kinact/KI was 2330 M⁻¹ s⁻¹.

Consider `CC(C)[C@H](NC(=O)OCc1ccncc1)C(=O)NC[C@@H]1O[C@@H]1[C@H](Cc1ccccc1)NC(=O)[C@@H](NC(=O)OCc1ccncc1)C(C)C` [compound 79], for which the inhibition constant Ki worked out at 3000 nM, the kinact was 0.00167 s⁻¹ and the kinact/KI is 550 M⁻¹ s⁻¹.

These data come from patent US5744621A, “Irreversible HIV protease inhibitors, intermediates, compositions and processes for the preparation thereof” (Lucky Limited., priority 1992, dated 1998).
